For 29 molecules, TGI and GI50 results are on record in PubChem BioAssay (NCI).

Where “and” joins values, the source holds several entries; their conditions need not be identical. Identical values can stand only once.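 These data come from cells grown in 96-well plates and exposed to compound for 48 hours at five concentrations. GI50 marks 50% less growth. Definition used: TGI = concentration required for complete inhibition of growth.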 A value given as a limit tells only on which side of the number the result lay.

Assay in all cases: NCI-60 cell line screen, 48 h
Experiment [1] concerns M14 melanoma.
The subject of experiment [2] is SF-295 CNS.
Experiment [3] deals with T-47D breast.
Experiment [4] deals with HT29 colon.
Experiment [5] concerns SK-MEL-2 melanoma.
The subject of experiment [6] is RPMI-8226 leukemia.
Experiment [7] deals with NCI-H226 lung.
Experiment [8] concerns NCI/ADR-RES ovarian.
Experiment [9] relates to SW-620 colon.
Experiment [10] deals with K-562 leukemia.

Regarding `COC1=C(Cl)C(=O)c2c(O)ccc(O)c2C1=O`, the TGI in [1] amounted to 1.28 µM; in [2] it was 20.3 µM; in [3] it was 3.61 µM; in [4], 11.8 µM; in experiment [5] it was 3.25 µM; in experiment [6], 1.45 µM. In addition, the TGI in experiment [7] was 26.1 µM; in experiment [8], 2.32 µM; in [9] it was 0.46 µM.
As to `COC(=O)CCNc1c2ccccc2nc2cccc([N+](=O)[O-])c12`, the GI50 in [2] was 0.00261 µM; in [3], 0.0283 µM; in [5], 0.00104 µM; in experiment [7], 0.00347 µM. Also, the TGI was 0.466 µM in experiment [3]; 0.00284 µM in experiment [5]; 0.0236 µM in [6]; 0.0333 µM and 0.0378 µM in [7]; 0.068 µM in [8]; 0.00152 µM in experiment [10].
With `Cc1nc2c(cc1OCc1ccccc1)C(=O)C1=C(C2=O)C2OC(=O)CC2OC1(C)C` (configuration not stated), the TGI in [1] is 1.77 µM; in [3], 1.23 µM; in [4], 1.41 µM; in experiment [6], over 100 µM; in experiment [7], 2.98 µM; in experiment [8] it was 28.9 µM.
For `COC(=O)C(Cc1c[nH]c2ccccc12)NP(=O)(O)OCC1OC(n2cc(Br)c(=O)[nH]c2=O)CC1O` (configuration not stated), the TGI in [1], in experiment [2], in [3], in [4], in experiment [5] and in experiment [7] was over 100 µM throughout. The TGI in experiment [8], in experiment [10] and in experiment [9] was over 100 µM in each case.
As for `O=C(O)/C(=C\c1ccc(O)cc1)c1cccc2ccccc12`, the TGI in [1], in experiment [2], in experiment [3], in experiment [4], in experiment [5] and in experiment [7] was over 100 µM throughout. The TGI in experiment [8], in experiment [10] and in [9] was over 100 µM in each case.
Regarding `CCCCCCCCCCCCCC[n+]1ccc(C(N)=O)cc1`, the GI50 in experiment [2] is 1.76 µM; in [3] it was 3.13 µM; in experiment [4] it was 1.11 µM; in [6], 0.731 µM; in [7], 1.52 µM; in experiment [8], 19 µM. The GI50 in experiment [10] and in experiment [9] was 2.31 µM each time. The TGI in experiment [2] was found to be 5.06 µM; in experiment [3] it was 14 µM; in experiment [4] it was 4.13 µM; in [6] it was 3.03 µM; in experiment [7], 4.01 µM; in [8], 50.2 µM. Besides, the TGI is over 100 µM in experiment [10] and 11.2 µM in experiment [9].
As to `C=CC(=O)N1C/C(=C\c2ccc([N+](=O)[O-])cc2)C(=O)/C(=C/c2ccc([N+](=O)[O-])cc2)C1`, the TGI in experiment [1] is 0.41 µM; in experiment [2] it was 0.603 µM; in [3] it was 1.79 µM; in [4] it was under 0.038 µM; in [5], 1.8 µM; in experiment [6] it was over 100 µM. In addition, the TGI was found to be 1.05 µM in experiment [7], 4.12 µM in experiment [8] and 1.96 µM in experiment [9].
In the case of `Nc1ccc2ccc(N3CCNCC3)nc2n1`, the TGI is over 100 µM in experiment [1]; over 100 µM in experiment [2]; over 100 µM in experiment [4]; over 100 µM in experiment [5]; over 100 µM in experiment [6]; 85.2 µM in experiment [7]. Moreover, the TGI in [8], in [10] and in [9] was over 100 µM throughout.
As to `Nn1c(=O)[nH]c2ncn(Cc3ccccc3)c2c1=O`, the TGI in experiment [1], in [2], in experiment [3], in experiment [4], in experiment [5] and in experiment [7] was over 100 µM in each case. Further, the TGI in experiment [8], in [10] and in [9] was over 100 µM in each case.
For the molecule `CCC(CC)(CO)CNc1cc(Cl)nc(N)n1`, the TGI in [2], in experiment [3], in experiment [4], in experiment [5], in experiment [6] and in experiment [7] was over 100 µM each time. Also, the TGI in experiment [8], in experiment [10] and in [9] was over 100 µM throughout.
Turning to `CCCOP(=O)(OCCC)OC(C(F)(F)F)C(F)(F)F`, the TGI in experiment [1], in [3], in experiment [4], in experiment [5], in experiment [6] and in experiment [7] was over 100 µM throughout. In [10], this molecule showed a TGI of over 100 µM.
For the molecule `Cc1[nH]c2ccccc2c1/C=N/NC(=O)c1cccc(I)c1`, the TGI was determined as 30 µM in experiment [1]; 43.3 µM in experiment [2]; 52.9 µM in [3]; 63.3 µM in experiment [4]; 39.2 µM in [5]; 48.4 µM in experiment [6]. Besides, the TGI in [8] was 56 µM; in [10], 78.7 µM; in experiment [9], over 100 µM.
Regarding `Cc1ccc(-c2cc[n+]3c(n2)oc2ccccc23)cc1`, the TGI in experiment [1] was 84.5 µM; in experiment [2] it was over 100 µM; in [3], over 100 µM; in [5], 46.6 µM; in [6], 54.4 µM; in experiment [8], over 100 µM. For the same molecule, the TGI in [10] is 22.5 µM; in experiment [9], over 100 µM.
Consider `CCN(CC)CC1CN=C(N)O1` (configuration not stated), for which the TGI in experiment [1], in experiment [2], in experiment [3], in [5], in experiment [6] and in [7] was over 100 µM each time. Besides, the TGI in experiment [8], in [10] and in experiment [9] was over 100 µM in each case.
`CC1SC2(CCCCC2)N(NC(=O)CSc2nc3ccc(Cl)cc3c(=O)n2-c2ccccc2)C1=O` (configuration not stated): the TGI in experiment [1] is 42.2 µM; in experiment [2] it was 36.8 µM; in experiment [3], over 100 µM; in experiment [4], 33 µM; in experiment [5] it was 31.8 µM; in experiment [8] it was 50.2 µM. The TGI was 73.8 µM in [10] and 75.2 µM in experiment [9].
In the case of `COc1cc(C2C3=C(CCCC3=O)N(c3ccc(C)cc3)C3=C2C(=O)CCC3)c([N+](=O)[O-])cc1OC`, the TGI in experiment [1], in experiment [4], in experiment [6], in [7], in [8] and in experiment [10] was over 100 µM in each case. Further, the TGI in experiment [9] is over 100 µM.
For the molecule `O=P(Nc1ccccc1)(Oc1ccccc1)N(CCCl)CCCl` (configuration not stated), the TGI in experiment [1], in experiment [2], in experiment [4], in experiment [5], in experiment [7] and in experiment [10] was over 100 µM in each case. The TGI in experiment [9] is over 100 µM.
Turning to `CC(=O)C(C(C)=O)[C@@H]1OC(C)(C)O[C@@H]1[C@H]1COC(C)(C)O1`, the TGI in experiment [1], in experiment [2], in [4], in experiment [5], in [6] and in experiment [7] was over 100 µM in each case. For the same molecule, the TGI in experiment [8], in [10] and in [9] was over 100 µM in each case.
On to `CC(C)C(=O)/C=C/S/C=C/C(=O)C(C)C`, for which the TGI was 20.2 µM in experiment [1]; over 100 µM in [2]; 65.7 µM in experiment [3]; over 100 µM in [4]; over 100 µM in experiment [5]; 29.2 µM in experiment [7]. Moreover, the values for the TGI in experiment [8] and in experiment [9] were 9.63 µM and 17 µM, respectively.
Turning to `COC(=O)CNC(=O)CCC(C)[C@H]1CCC2C3C(C[C@H](OC(C)=O)[C@@]21C)[C@@]1(C)CCC2(C[C@H]1C[C@H]3OC(C)=O)OOC1(CC[C@]3(C)C4C[C@H](OC(C)=O)[C@@]5(C)C(CC[C@@H]5C(C)CCC(=O)NCC(=O)OC)C4[C@H](OC(C)=O)C[C@@H]3C1)OO2` (some centres not stated), the TGI was 7.96 µM in [1]; 24.7 µM in experiment [2]; 22.4 µM in experiment [3]; 2.37 µM in experiment [4]; 1.66 µM in [5]; 3.46 µM in experiment [7]. The TGI in [8] is over 50 µM; in [10], 4.63 µM; in [9], over 50 µM.
As for `CC(=O)O[C@H]1C(=O)[C@@]2(C)[C@H]([C@H](OC(=O)c3ccccc3)[C@]3(O)C[C@H](OC(=O)[C@H](O)[C@@H](NC(=O)c4ccccc4)c4cccc(N(C)C)c4)C(C)=C1C3(C)C)[C@]1(OC(C)=O)CO[C@@H]1C[C@@H]2O`, the TGI in [2] is 1.14 µM; in [3] it was 30.7 µM; in experiment [4], over 32.9 µM; in experiment [5], over 75 µM; in experiment [6], 0.236 µM; in [7], 29 µM. The TGI in experiment [8] was over 62.5 µM; in experiment [10], over 75 µM; in experiment [9] it was over 75 µM.
With `COc1ccc(-c2ncn(C[Si](C)(C)C)c2-c2ccc(OC)cc2)cc1`, the TGI in [1] was found to be 14.8 µM; in experiment [2], 18.3 µM; in experiment [4], 10.8 µM; in experiment [5] it was 20.5 µM; in experiment [6], 4.57 µM; in [7] it was 24.5 µM. Also, the TGI in [8] was determined as 29.1 µM; in experiment [10], 10.6 µM; in experiment [9], 17 µM.
Take `CN(CCCNC(=O)c1nn(C)c2c1Cc1ccccc1-2)CCCNC(=O)c1nn(C)c2c1Cc1ccccc1-2`: the TGI in experiment [1] was 14.5 µM; in experiment [2] it was 34.7 µM; in [3] it was 61.8 µM; in experiment [4], 31.6 µM; in experiment [5] it was 32 µM; in experiment [6], 35.9 µM. Moreover, the TGI is over 68.9 µM in experiment [8], 25.6 µM in [10] and 27.9 µM in experiment [9].
`Cc1ccc(S(=O)(=O)N/N=C2\CC3CC4CCC2C4C3)cc1` (configuration not stated): the TGI in experiment [1], in experiment [2], in experiment [3], in [4], in [6] and in experiment [7] was over 100 µM throughout. Moreover, the TGI in experiment [10] and in experiment [9] was over 100 µM in each case.
As for `O=C(N/N=C\c1cccc2ccccc12)Nc1cccc2ccccc12`, the TGI in experiment [1], in experiment [3], in [4], in experiment [5], in [7] and in [8] was over 100 µM throughout. The TGI in experiment [10] is 15.6 µM; in experiment [9], over 100 µM.
As to `CCOC(=O)CCN1C(=O)C(=O)N(c2ccc(OC)cc2)C1=S`, the TGI in experiment [2], in experiment [3], in experiment [4], in experiment [5], in [6] and in experiment [7] was over 100 µM each time. For the same molecule, the TGI in experiment [8], in [10] and in experiment [9] was over 100 µM in each case.
With `COC(=O)c1c(C)cccc1C1CN=NC12Cc1cc(C)cc(C)c1C2=O` (configuration not stated), the TGI in [1], in experiment [2], in experiment [3], in experiment [4], in [5] and in experiment [7] was over 100 µM each time. For the same molecule, the TGI in experiment [8], in [10] and in experiment [9] was over 100 µM in each case.
On to `C=CC(C)C1(CCCOCc2ccccc2)C(=S)N2CCC3(CC24CCCC14)OCCO3` (configuration not stated), for which the TGI in experiment [2] was over 100 µM; in [4], over 100 µM; in [5] it was over 100 µM; in [6], 10.4 µM; in [7], over 100 µM; in experiment [10] it was over 100 µM. In experiment [9], the TGI was over 100 µM.
With `CNC(=O)SCC(NC(=O)CCC(N)C(=O)O)C(=O)NCC(=O)O` (configuration not stated), the TGI in experiment [2], in experiment [4], in experiment [5], in [6], in experiment [7] and in experiment [8] was over 100 µM throughout. In addition, the TGI in [10] and in [9] was over 100 µM throughout.
